According to ChEMBL document CHEMBL4665835, “Synthesis and pharmacological evaluation of 11-(1,6-dimethyl-1,2,3,6-tetrahydropyridin-4-yl)-5H-dibenzo[b,e][1,4]diazepines with clozapine-like receptor occupancy at dopamine D/D receptor” (Bioorg Med Chem Lett, 2020):

Tests used:
D(2) dopamine receptor = D(2) dopamine receptor (Homo sapiens, UniProt P14416)
Description: Binding affinity to human dopamine D2 receptor

[1] = molecular target: Voltage-gated inwardly rectifying potassium channel KCNH2 (Homo sapiens, UniProt Q12809); experiment: Inhibition of human ERG
Voltage-gated inwardly rectifying potassium channel KCNH2, sequence (Q12809 whole entry): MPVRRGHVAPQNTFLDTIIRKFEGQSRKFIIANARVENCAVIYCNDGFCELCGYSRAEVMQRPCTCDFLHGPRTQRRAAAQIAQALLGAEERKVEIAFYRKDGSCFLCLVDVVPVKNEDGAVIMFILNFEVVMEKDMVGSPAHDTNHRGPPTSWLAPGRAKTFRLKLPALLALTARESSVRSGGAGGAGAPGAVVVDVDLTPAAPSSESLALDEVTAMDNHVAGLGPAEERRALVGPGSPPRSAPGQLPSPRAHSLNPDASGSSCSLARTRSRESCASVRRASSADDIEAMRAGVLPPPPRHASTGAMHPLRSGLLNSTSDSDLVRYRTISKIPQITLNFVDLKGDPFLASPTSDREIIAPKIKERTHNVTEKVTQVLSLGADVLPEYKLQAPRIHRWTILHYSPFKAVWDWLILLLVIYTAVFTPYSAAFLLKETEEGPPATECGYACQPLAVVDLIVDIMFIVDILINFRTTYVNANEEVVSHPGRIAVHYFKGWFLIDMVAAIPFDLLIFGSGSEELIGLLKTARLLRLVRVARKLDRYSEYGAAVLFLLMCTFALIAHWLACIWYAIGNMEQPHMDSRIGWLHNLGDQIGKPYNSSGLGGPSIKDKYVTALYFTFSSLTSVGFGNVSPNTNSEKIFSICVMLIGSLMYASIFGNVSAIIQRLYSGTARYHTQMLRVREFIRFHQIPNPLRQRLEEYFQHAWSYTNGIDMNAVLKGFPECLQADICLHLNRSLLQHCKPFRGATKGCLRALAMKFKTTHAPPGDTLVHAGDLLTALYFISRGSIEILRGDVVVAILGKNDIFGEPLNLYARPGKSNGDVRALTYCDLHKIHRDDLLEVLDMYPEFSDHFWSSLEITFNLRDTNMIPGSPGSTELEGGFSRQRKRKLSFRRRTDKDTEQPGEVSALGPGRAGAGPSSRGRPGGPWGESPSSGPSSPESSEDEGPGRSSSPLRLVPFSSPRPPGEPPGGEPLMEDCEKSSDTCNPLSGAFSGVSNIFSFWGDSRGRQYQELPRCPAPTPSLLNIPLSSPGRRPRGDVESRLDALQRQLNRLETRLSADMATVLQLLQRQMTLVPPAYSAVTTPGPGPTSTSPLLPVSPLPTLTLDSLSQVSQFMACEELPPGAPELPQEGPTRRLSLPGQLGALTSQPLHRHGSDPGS

[2] = Drug metabolism in human hepatocyte microsome fraction assessed as GSH conjugate formation by LC-MS/MS analysis; assay type: ADME; details: microsomes
D(1A) dopamine receptor [3] = molecular target: T1, D(1A) dopamine receptor (Homo sapiens, UniProt P21728); experiment: Binding affinity to human dopamine D1 receptor
T1 sequence (P21728 whole entry): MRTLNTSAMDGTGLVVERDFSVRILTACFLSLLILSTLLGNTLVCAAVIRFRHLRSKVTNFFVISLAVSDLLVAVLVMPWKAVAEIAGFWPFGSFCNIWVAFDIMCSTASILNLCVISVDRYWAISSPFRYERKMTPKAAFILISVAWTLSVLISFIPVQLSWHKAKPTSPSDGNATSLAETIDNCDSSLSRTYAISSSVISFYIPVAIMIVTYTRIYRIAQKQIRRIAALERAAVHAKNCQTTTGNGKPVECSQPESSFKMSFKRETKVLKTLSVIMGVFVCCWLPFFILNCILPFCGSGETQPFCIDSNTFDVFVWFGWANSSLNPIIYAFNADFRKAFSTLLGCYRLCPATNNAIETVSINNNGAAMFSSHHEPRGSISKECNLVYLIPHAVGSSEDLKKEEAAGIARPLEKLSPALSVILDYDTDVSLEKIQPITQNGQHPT

D(1A) dopamine receptor [4] = molecular target: T1, D(1A) dopamine receptor; experiment: Potency index, ratio of Clozapine Ki to compound Ki for binding affinity to human dopamine D1 receptor
[5] = In vivo receptor occupancy at dopamine D1 receptor in sc dosed rat brain by measuring free plasma concentration pretreated for 1 hr in presence of SCH-23390 by LC-MS/MS analysis; assay type: functional
[6] = In vivo receptor occupancy at dopamine D1 receptor in sc dosed rat brain by measuring free plasma concentration pretreated for 1 hr in presence of raclopride by LC-MS/MS analysis; assay type: functional
[7] = molecular target: 5-hydroxytryptamine receptor 2A (Homo sapiens, UniProt P28223); experiment: Binding affinity to human 5HT2A receptor
5-hydroxytryptamine receptor 2A, sequence (P28223 whole entry): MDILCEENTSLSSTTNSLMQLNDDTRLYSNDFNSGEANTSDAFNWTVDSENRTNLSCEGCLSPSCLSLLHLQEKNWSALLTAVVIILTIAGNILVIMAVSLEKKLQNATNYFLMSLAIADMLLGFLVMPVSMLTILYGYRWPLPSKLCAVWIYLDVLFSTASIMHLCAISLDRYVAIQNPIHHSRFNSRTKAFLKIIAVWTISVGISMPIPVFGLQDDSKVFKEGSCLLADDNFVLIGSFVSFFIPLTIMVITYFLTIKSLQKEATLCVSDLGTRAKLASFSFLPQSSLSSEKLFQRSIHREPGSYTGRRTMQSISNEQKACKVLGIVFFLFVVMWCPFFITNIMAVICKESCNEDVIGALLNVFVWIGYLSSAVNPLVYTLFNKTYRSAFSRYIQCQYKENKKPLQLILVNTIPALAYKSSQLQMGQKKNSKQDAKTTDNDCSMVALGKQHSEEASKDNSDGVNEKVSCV

[8] = In vivo receptor occupancy at human dopamine D1 receptor in schizophrenia patient brain at 10 mCi, iv by PET scanning; assay type: functional
[9] = In vivo receptor occupancy at human dopamine D2 receptor in schizophrenia patient brain at 10 mCi, iv by PET scanning; assay type: functional

D(2) dopamine receptor, sequence (P14416 whole entry): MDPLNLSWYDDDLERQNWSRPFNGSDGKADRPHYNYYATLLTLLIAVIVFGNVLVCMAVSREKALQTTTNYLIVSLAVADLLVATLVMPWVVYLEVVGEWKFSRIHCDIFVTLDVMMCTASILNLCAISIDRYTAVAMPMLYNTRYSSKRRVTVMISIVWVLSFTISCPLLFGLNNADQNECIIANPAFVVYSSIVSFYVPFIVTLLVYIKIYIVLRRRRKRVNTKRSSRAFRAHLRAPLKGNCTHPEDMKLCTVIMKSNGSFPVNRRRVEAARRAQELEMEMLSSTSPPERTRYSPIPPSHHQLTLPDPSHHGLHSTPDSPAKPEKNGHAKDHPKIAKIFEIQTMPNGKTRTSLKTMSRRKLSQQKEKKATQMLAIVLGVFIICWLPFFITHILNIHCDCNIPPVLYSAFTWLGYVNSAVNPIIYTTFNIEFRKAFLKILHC

Compound	Ki (D(2) dopamine receptor) [nM]	Drug metabolism [2] [µmol/L]	Ki (D(1A) dopamine receptor [3]) [nM]	Ratio (D(1A) dopamine receptor [4])	Ki [7] [nM]	IC50 [1] [nM]	Occ50 [5] [nM]	Occ50 [6] [nM]	Occ [8] [%]	Occ [9] [%]
CCc1ccc2c(c1)C(C1=C[C@H](C)N(C)CC1)=Nc1cc(Cl)ccc1N2	28	0.53	1.4	10	0.094	1100	1	6	–	–
CCOc1ccc2c(c1)C(C1=C[C@H](C)N(C)CC1)=Nc1cc(Cl)ccc1N2	47	0.77	3.7	10	0.091	900	–	–	–	–
OCCOCCN1CCN(C2=Nc3ccccc3Sc3ccccc32)CC1 [QUETIAPINE]	–	–	–	–	–	–	–	–	12	30
C[C@H]1C=C(C2=Nc3cc(Cl)ccc3Nc3ccc(Cl)cc32)CCN1C	106	0.72	0.9	–	–	900	–	–	–	–
C[C@H]1C=C(C2=Nc3cc(Cl)ccc3Nc3ccc(C#N)cc32)CCN1C	135	0.49	1.1	–	–	600	–	–	–	–
Cc1ccc2c(c1)N=C(C1=C[C@H](C)N(C)CC1)c1cc(OC(F)(F)F)ccc1N2	1220	–	2.4	–	–	–	–	–	–	–
C[C@H]1C=C(C2=Nc3cc(Cl)ccc3Nc3ccc(OC(F)(F)F)cc32)CCN1C	110	0.58	2	–	0.14	1900	–	–	–	–
C[C@H]1C=C(C2=Nc3cc(Cl)ccc3Nc3ccc(F)cc32)CCN1C	127	0.24	0.2	–	–	1200	–	–	–	–
COc1ccc2c(c1)C(C1=C[C@H](C)N(C)CC1)=Nc1cc(Cl)ccc1N2	69	0.89	2	–	–	1500	–	–	–	–
Cc1nc2n(c(=O)c1CCN1CCC(c3noc4cc(F)ccc34)CC1)CCCC2 [RISPERIDONE]	–	–	–	–	–	–	–	–	25	81
CN1CCN(C2=Nc3cc(Cl)ccc3Nc3ccccc32)CC1 [CLOZAPINE]	–	–	–	–	–	–	24.2	73.4	55	61
CN1CCN([C@@H]2C[C@@H](c3ccccc3)c3ccc(Cl)cc32)CC1(C)C [ZICRONAPINE]	–	0	–	–	–	–	23	6.6	–	–
CN1CCC(C2=Nc3cc(Cl)ccc3Nc3ccccc32)=CC1(C)C	1180	0.99	55	–	–	–	–	–	–	–
CN1CC=C(C2=Nc3cc(Cl)ccc3Nc3ccccc32)CC1	1380	0.21	380	–	–	–	–	–	–	–
COc1ccc2c(c1)C(C1=C[C@H](C)N(C)CC1)=Nc1cc(C)ccc1N2	> 1400	–	–	–	–	–	–	–	–	–
Cc1cc2c(s1)Nc1ccccc1N=C2N1CCN(C)CC1 [OLANZAPINE]	–	0.077	–	–	–	–	3.8	480	43	79

The next lines start with results.

Ki (D(2) dopamine receptor) [nM]	Drug metabolism [2] [µmol/L]	Ki (D(1A) dopamine receptor [3]) [nM]	Ratio (D(1A) dopamine receptor [4])	Ki [7] [nM]	Compound	IC50 [1] [nM]	Occ50 [5] [nM]	Occ50 [6] [nM]	Occ [8] [%]	Occ [9] [%]
> 1400	–	–	–	–	Cc1ccc2c(c1)N=C(C1=C[C@H](C)N(C)CC1)c1cc(C)ccc1N2	–	–	–	–	–
453	0.25	5.5	–	–	Cc1ccc2c(c1)N=C(C1=C[C@H](C)N(C)CC1)c1cc(F)ccc1N2	1600	–	–	–	–
63	0.35	2.3	–	0.094	Cc1ccc2c(c1)C(C1=C[C@H](C)N(C)CC1)=Nc1cc(Cl)ccc1N2	–	–	–	–	–
124	0.67	1.6	–	–	C[C@H]1C=C(C2=Nc3ccccc3Nc3ccc(Cl)cc32)CCN1C	600	–	–	–	–
479	1.3	51	–	–	C[C@H]1C=C(C2=Nc3cc(Cl)ccc3Nc3ccccc32)CCN1C	–	–	–	–	–
98	0.38	0.48	–	–	Cc1ccc2c(c1)N=C(C1=C[C@H](C)N(C)CC1)c1cc(Cl)ccc1N2	1100	–	–	–	–
819	0.85	7.9	–	–	Cc1ccc2c(c1)C(C1=C[C@H](C)N(C)CC1)=Nc1ccccc1N2	–	–	–	–	–
167	0.86	4	–	–	CCc1ccc2c(c1)C(C1=C[C@H](C)N(C)CC1)=Nc1ccccc1N2	600	–	–	–	–
> 1400	0.84	780	–	–	C[C@@H]1C=C(C2=Nc3cc(Cl)ccc3Nc3ccccc32)CCN1C	–	–	–	–	–
> 1400	–	–	–	–	Cc1ccc2c(c1)N=C(C1=C[C@H](C)N(C)CC1)c1ccccc1N2	–	–	–	–	–
